Test systems include ACHN; SNB-19; HCT-15; SNB-75; NCI-H226; T47D; NCI-H522; HCT-116; NCI-H23; A549; OVCAR-8; MCF7; OVCAR-5; DU-145; CAKI-1; UACC-62; HCC 2998; SW-620; SK-MEL-5; BT-549.
What all share (assay): inhibition of tumour cell growth, NCI panel, 48 h

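Five concentrations, 48 hours, 96-well plates. GI50 marks 50% less growth.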 The source made the active and inactive calls. Rule as the data show it: active = GI50 up to about 1.1 µM and inactive = higher.

As to `COC(=O)CNC(=O)CSc1nnc(COc2ccc(Cl)cc2)n1-c1ccccc1`, the GI50 with ACHN is 24 µM (inactive); in the test on SNB-19, > 100 µM (inactive); in the test with HCT-15 it was above 100 µM; in the test on SNB-75, 17.3 µM (inactive); with NCI-H226, 47.4 µM (inactive); with T47D, 26.6 µM (inactive). Further, the GI50 in the test on NCI-H522 is 15.3 µM (inactive); in the test with HCT-116, 94.4 µM (inactive); in the test on NCI-H23 it was 40.3 µM (inactive); in the test on A549, > 100 µM (inactive); in the test on OVCAR-8, 31 µM (inactive); in the test with MCF7, 79.6 µM (inactive). In addition, the GI50 with OVCAR-5 is 56.1 µM (inactive); with DU-145, 16.3 µM (inactive); in the test with CAKI-1, 16.9 µM (inactive); in the test on UACC-62, 39.5 µM (inactive); in the test on HCC 2998, 25.3 µM (inactive); in the test on SW-620, 43.6 µM (inactive).

On to `COc1ccccc1C(=O)c1ccc2ccccc2c1`, for which the GI50 in the test on ACHN is 41.2 µM (inactive); with SNB-19, 19.5 µM (inactive); in the test with HCT-15, 9.55 µM; in the test on SNB-75, 38.2 µM (inactive); with NCI-H226 it was 31.5 µM (inactive); with NCI-H522, 5.85 µM (inactive). For the same molecule, the GI50 is 39.7 µM (inactive) in the test with HCT-116; 40 µM (inactive) in the test with NCI-H23; 17.9 µM (inactive) in the test with A549; 26.4 µM (inactive) with OVCAR-8; 8.15 µM (inactive) with MCF7; 6.19 µM (inactive) with SK-MEL-5. The GI50 is 64.6 µM (inactive) with OVCAR-5; 16.1 µM (inactive) in the test on BT-549; 20.6 µM (inactive) with DU-145; 13.8 µM (inactive) with CAKI-1; 7.48 µM (inactive) in the test with UACC-62; 51.8 µM (inactive) in the test on HCC 2998. The GI50 in the test with SW-620 is 8.3 µM (inactive).

For `CC(=O)NNC(=O)C1CCCCN1` (centres undefined), the GI50 in the test on ACHN was > 100 µM (inactive); in the test on SNB-19 it was > 100 µM (inactive); in the test with HCT-15, above 100 µM; in the test on NCI-H226 it was > 100 µM (inactive); in the test with NCI-H522, > 100 µM (inactive); in the test on HCT-116, > 100 µM (inactive). Besides, the GI50 with NCI-H23, in the test on A549, in the test with OVCAR-8, with MCF7, in the test on SK-MEL-5 and in the test on OVCAR-5 was > 100 µM (inactive) each time. Also, the GI50 with BT-549, with DU-145, with CAKI-1 and in the test with SW-620 was > 100 µM (inactive) each time.

Regarding `Cc1ccc(N(C(=O)Nc2ccccc2)C2=NCC(C)S2)cc1C` (centres undefined), the GI50 in the test with ACHN was 28.7 µM (inactive); with SNB-19, 33.3 µM (inactive); with HCT-15, 15.4 µM; in the test on SNB-75, 24.4 µM (inactive); in the test with T47D, 14.8 µM (inactive); with HCT-116, 16.4 µM (inactive). In addition, the GI50 is 15.7 µM (inactive) with NCI-H23; 29 µM (inactive) in the test on A549; 29.2 µM (inactive) with OVCAR-8; 12.8 µM (inactive) in the test with MCF7; 17 µM (inactive) in the test on SK-MEL-5; 23.1 µM (inactive) with OVCAR-5. In addition, the GI50 in the test on DU-145 is 31.4 µM (inactive); in the test with CAKI-1, > 10 µM (inactive); in the test on HCC 2998, > 10 µM (inactive); with SW-620, 24.7 µM (inactive).

For the molecule `Cc1nc(O)c2ncn(CCO)c2n1`, the GI50 in the test with ACHN is > 100 µM (inactive); in the test on SNB-19, > 100 µM (inactive); in the test on HCT-15 it was above 100 µM; with SNB-75, > 100 µM (inactive); in the test with NCI-H226, > 100 µM (inactive); with T47D, > 100 µM (inactive). The GI50 in the test with NCI-H522, in the test on HCT-116, with NCI-H23, in the test on A549, in the test on OVCAR-8 and in the test with MCF7 was > 100 µM (inactive) in each case. Also, the GI50 with SK-MEL-5, in the test on OVCAR-5, in the test on DU-145, in the test with CAKI-1, with UACC-62 and with HCC 2998 was > 100 µM (inactive) each time. Further, the GI50 with SW-620 is > 100 µM (inactive).

As for `CCCCCCNCCc1c[nH]cn1`, the GI50 was > 100 µM (inactive) with ACHN; > 100 µM (inactive) in the test on SNB-19; above 100 µM in the test on HCT-15; > 100 µM (inactive) in the test on SNB-75; > 100 µM (inactive) with NCI-H226; > 100 µM (inactive) in the test with T47D. In addition, the GI50 in the test with NCI-H522, with HCT-116, in the test with NCI-H23, in the test on A549, in the test with OVCAR-8 and with MCF7 was > 100 µM (inactive) in each case. In addition, the GI50 with SK-MEL-5, in the test on OVCAR-5, in the test with DU-145, in the test with CAKI-1, in the test with UACC-62 and in the test on HCC 2998 was > 100 µM (inactive) each time. Besides, in the test on SW-620, the GI50 was > 100 µM (inactive).

Turning to `CC(=O)Nc1ccccc1NC1CC(C)N(c2ccccc2)N1C(C)=O` (centres undefined), the GI50 with HCT-15 is above 10 µM; in the test on SNB-75, > 10 µM (inactive); in the test on T47D, > 10 µM (inactive); in the test with NCI-H23, > 10 µM (inactive); in the test on A549 it was > 10 µM (inactive); with OVCAR-8, > 10 µM (inactive). Further, the GI50 in the test on MCF7, in the test on SK-MEL-5, in the test on DU-145, in the test with CAKI-1, with UACC-62 and in the test on HCC 2998 was > 10 µM (inactive) each time. Also, the GI50 in the test on SW-620 is > 10 µM (inactive).

On to `c1ccc(C2=C(c3ccccc3)P(c3ccccc3)C2)cc1` (centres undefined), for which the GI50 in the test with ACHN is > 100 µM (inactive); in the test on HCT-15, above 100 µM; with SNB-75 it was 32.7 µM (inactive); with NCI-H226 it was 53.2 µM (inactive); in the test on T47D, > 100 µM (inactive); with NCI-H522, 47.6 µM (inactive). In addition, the GI50 with HCT-116 is 83.4 µM (inactive); in the test with A549, 43.4 µM (inactive); in the test with OVCAR-8, 89.7 µM (inactive); in the test with MCF7, > 100 µM (inactive); in the test on OVCAR-5 it was > 100 µM (inactive); in the test on DU-145, > 100 µM (inactive). Further, the GI50 was > 100 µM (inactive) with CAKI-1, > 100 µM (inactive) in the test on HCC 2998 and 64 µM (inactive) in the test on SW-620.

For the molecule `N=C(N)n1nc2c(c1O)CCCC2`, the GI50 in the test with ACHN was > 100 µM (inactive); with SNB-19, > 100 µM (inactive); in the test with HCT-15 it was above 100 µM; in the test on SNB-75 it was 14.5 µM (inactive); with NCI-H226, > 100 µM (inactive); in the test with T47D it was > 100 µM (inactive). In addition, the GI50 with NCI-H522, in the test on HCT-116, with NCI-H23, with A549, with OVCAR-8 and in the test on MCF7 was > 100 µM (inactive) each time. Further, the GI50 in the test with SK-MEL-5, in the test on OVCAR-5, in the test on DU-145, in the test with CAKI-1, in the test with UACC-62 and in the test on HCC 2998 was > 100 µM (inactive) throughout. For the same molecule, in the test with SW-620, the GI50 is > 100 µM (inactive).

These data come from ChEMBL document CHEMBL1201862, “PubChem BioAssay data set” (2004).
